Test results taken from the supplement of paper PMC10307832.

Tests used:
Test in all cases: relative viability (nuclei count vs DMSO), 5 days (fraction); higher = more cells survive
[1] = compound: C1CNCCC1C2=CC(=NN2)C3=CC=NC=C3 + CC1(C)CCC(c2ccc(Cl)cc2)=C(CN2CCN(c3ccc(C(=O)NS(=O)(=O)c4ccc(N[C@H](CCN5CCOCC5)CSc5ccccc5)c(S(=O)(=O)C(F)(F)F)c4)cc3)CC2)C1 [Navitoclax] (partner 0.5 µM)
Method in brief: (§1)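 Lung cancer cell lines were pin-tool dosed in 1536-well plates on the day after seeding, with either a lone drug or a fixed anchor-drug dose plus five library-drug doses (not always all listed) in √10 steps. Nuclei were counted on 4× images after 5 days. Relative viability is the ratio of treated-well to vehicle-well nuclei counts, with each value a median of duplicate plates.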

[2] = compound: C1CNCCC1C2=CC(=NN2)C3=CC=NC=C3 + CS(=O)(=O)CCNCc1ccc(-c2ccc3ncnc(Nc4ccc(OCc5cccc(F)c5)c(Cl)c4)c3c2)o1 [Lapatinib] (partner 2 µM)
Method in brief: as §1

[3] = compound: C[C@@H](N)c1ccc(C(=O)Nc2ccnc3[nH]ccc23)cc1 + CC(C)C[C@H](NC(=O)[C@H](Cc1ccccc1)NC(=O)c1cnccn1)B(O)O [Bortezomib] (partner 0.002 µM)
Method in brief: as §1

[4] = compound: C[C@@H](N)c1ccc(C(=O)Nc2ccnc3[nH]ccc23)cc1 + C[C@]1(O)C[C@@H](c2nc(-c3ccc4ccc(-c5ccccc5)nc4c3)c3c(N)nccn32)C1 [Linsitinib] (partner 1 µM)
Method in brief: as §1

PC-14 showed a relative viability ([1]; first compound 0.08 µM) of 0.987, a relative viability ([1]; first compound 0.8 µM) of 1.13 and a relative viability ([1]; first compound 2.53 µM) of 1.06. The relative viability ([1]; first compound 8 µM) was 0.979, the relative viability ([2]; first compound 0.08 µM) was 0.348 and the relative viability ([2]; first compound 0.8 µM) was 0.304. For the same cell line, the relative viability ([2]; first compound 2.53 µM) was 0.318, the relative viability ([2]; first compound 8 µM) was 0.38 and the relative viability ([3]; first compound 0.04 µM) was 0.832. For the same cell line, the relative viability ([3]; first compound 0.1265 µM) was 0.836, the relative viability ([3]; first compound 0.4 µM) was 0.874 and the relative viability ([3]; first compound 1.265 µM) was 0.923. For the same cell line, the relative viability ([3]; first compound 4 µM) was 0.755, the relative viability ([4]; first compound 0.04 µM) was 0.927 and the relative viability ([4]; first compound 0.1265 µM) was 0.907. It also gave a relative viability ([4]; first compound 0.4 µM) of 0.924, a relative viability ([4]; first compound 1.265 µM) of 0.819 and a relative viability ([4]; first compound 4 µM) of 0.725.

In the case of Calu-6, the relative viability ([1]; first compound 0.08 µM) is reported as 0.879, the relative viability ([1]; first compound 0.8 µM) is reported as 0.86 and the relative viability ([1]; first compound 2.53 µM) is reported as 0.914. It also gave a relative viability ([1]; first compound 8 µM) of 0.87, a relative viability ([2]; first compound 0.08 µM) of 0.987 and a relative viability ([2]; first compound 0.8 µM) of 1.17. The relative viability ([2]; first compound 2.53 µM) was 1.12, the relative viability ([2]; first compound 8 µM) was 1.05 and the relative viability ([3]; first compound 0.04 µM) was 0.99. The relative viability ([3]; first compound 0.1265 µM) was 1.1, the relative viability ([3]; first compound 0.4 µM) was 0.911 and the relative viability ([3]; first compound 1.265 µM) was 0.886. It also gave a relative viability ([3]; first compound 4 µM) of 0.886, a relative viability ([4]; first compound 0.04 µM) of 0.757 and a relative viability ([4]; first compound 0.1265 µM) of 0.952. It also gave a relative viability ([4]; first compound 0.4 µM) of 0.984, a relative viability ([4]; first compound 1.265 µM) of 0.922 and a relative viability ([4]; first compound 4 µM) of 0.839.

In the case of NCI-H1650, the relative viability ([1]; first compound 0.08 µM) is reported as 1.11, the relative viability ([1]; first compound 0.8 µM) is reported as 1.37 and the relative viability ([1]; first compound 2.53 µM) is reported as 1.12. It also gave a relative viability ([1]; first compound 8 µM) of 1.22, a relative viability ([2]; first compound 0.08 µM) of 0.561 and a relative viability ([2]; first compound 0.8 µM) of 0.751. For the same cell line, the relative viability ([2]; first compound 2.53 µM) was 0.821, the relative viability ([2]; first compound 8 µM) was 0.736 and the relative viability ([3]; first compound 0.04 µM) was 0.227. It also gave a relative viability ([3]; first compound 0.1265 µM) of 0.199, a relative viability ([3]; first compound 0.4 µM) of 0.221 and a relative viability ([3]; first compound 1.265 µM) of 0.205. The relative viability ([3]; first compound 4 µM) was 0.203.

Work on ChaGo-K-1 yielded a relative viability ([1]; first compound 0.08 µM) of 0.861, a relative viability ([1]; first compound 0.8 µM) of 1.29 and a relative viability ([1]; first compound 2.53 µM) of 0.682. It also gave a relative viability ([1]; first compound 8 µM) of 1.01, a relative viability ([3]; first compound 0.04 µM) of 1.01 and a relative viability ([3]; first compound 0.1265 µM) of 1.07. The relative viability ([3]; first compound 0.4 µM) was 1 and the relative viability ([3]; first compound 4 µM) was 0.734.

NCI-H650 showed a relative viability ([2]; first compound 0.08 µM) of 0.966, a relative viability ([2]; first compound 0.8 µM) of 0.773 and a relative viability ([2]; first compound 2.53 µM) of 1.11. The relative viability ([2]; first compound 8 µM) was 0.951, the relative viability ([3]; first compound 0.04 µM) was 0.586 and the relative viability ([3]; first compound 0.1265 µM) was 0.695. It also gave a relative viability ([3]; first compound 0.4 µM) of 0.86, a relative viability ([3]; first compound 4 µM) of 0.64 and a relative viability ([4]; first compound 0.04 µM) of 0.723. For the same cell line, the relative viability ([4]; first compound 0.1265 µM) was 0.751, the relative viability ([4]; first compound 0.4 µM) was 0.841 and the relative viability ([4]; first compound 4 µM) was 0.658.

Work on NCI-H661 yielded a relative viability ([2]; first compound 0.08 µM) of 0.466, a relative viability ([2]; first compound 0.8 µM) of 0.475 and a relative viability ([2]; first compound 2.53 µM) of 0.479. It also gave a relative viability ([2]; first compound 8 µM) of 0.55, a relative viability ([3]; first compound 0.04 µM) of 0.739 and a relative viability ([3]; first compound 0.1265 µM) of 0.844. For the same cell line, the relative viability ([3]; first compound 0.4 µM) was 0.94, the relative viability ([3]; first compound 1.265 µM) was 0.76 and the relative viability ([3]; first compound 4 µM) was 0.737. For the same cell line, the relative viability ([4]; first compound 0.04 µM) was 0.558, the relative viability ([4]; first compound 0.1265 µM) was 0.582 and the relative viability ([4]; first compound 0.4 µM) was 0.623. For the same cell line, the relative viability ([4]; first compound 1.265 µM) was 0.441 and the relative viability ([4]; first compound 4 µM) was 0.508.

ABC-1 was tested, and the relative viability ([2]; first compound 0.08 µM) was 1.14, the relative viability ([2]; first compound 0.8 µM) was 1.25 and the relative viability ([2]; first compound 2.53 µM) was 1.09. It also gave a relative viability ([2]; first compound 8 µM) of 1.38, a relative viability ([3]; first compound 0.04 µM) of 0.289 and a relative viability ([3]; first compound 0.1265 µM) of 0.308. It also gave a relative viability ([3]; first compound 0.4 µM) of 0.333, a relative viability ([3]; first compound 1.265 µM) of 0.272 and a relative viability ([3]; first compound 4 µM) of 0.319. For the same cell line, the relative viability ([4]; first compound 0.04 µM) was 0.894, the relative viability ([4]; first compound 0.1265 µM) was 0.81 and the relative viability ([4]; first compound 0.4 µM) was 0.998. For the same cell line, the relative viability ([4]; first compound 1.265 µM) was 0.911 and the relative viability ([4]; first compound 4 µM) was 0.683.

LK-2 was tested, and the relative viability ([1]; first compound 0.08 µM) was 0.674, the relative viability ([1]; first compound 0.8 µM) was 1.25 and the relative viability ([1]; first compound 2.53 µM) was 0.843. For the same cell line, the relative viability ([1]; first compound 8 µM) was 0.87, the relative viability ([2]; first compound 0.08 µM) was 0.768 and the relative viability ([2]; first compound 0.8 µM) was 0.791. For the same cell line, the relative viability ([2]; first compound 2.53 µM) was 1.06, the relative viability ([2]; first compound 8 µM) was 0.83 and the relative viability ([4]; first compound 0.04 µM) was 0.822. For the same cell line, the relative viability ([4]; first compound 0.1265 µM) was 0.542, the relative viability ([4]; first compound 0.4 µM) was 0.809 and the relative viability ([4]; first compound 1.265 µM) was 0.554. For the same cell line, the relative viability ([4]; first compound 4 µM) was 0.721.

In the case of SK-MES-1, the relative viability ([1]; first compound 0.08 µM) is reported as 1.26, the relative viability ([1]; first compound 0.8 µM) is reported as 1.36 and the relative viability ([1]; first compound 2.53 µM) is reported as 1.37. For the same cell line, the relative viability ([1]; first compound 8 µM) was 1.2, the relative viability ([2]; first compound 0.08 µM) was 0.423 and the relative viability ([2]; first compound 0.8 µM) was 0.381. It also gave a relative viability ([2]; first compound 2.53 µM) of 0.439, a relative viability ([2]; first compound 8 µM) of 0.421 and a relative viability ([4]; first compound 0.04 µM) of 1.06. For the same cell line, the relative viability ([4]; first compound 0.1265 µM) was 0.996, the relative viability ([4]; first compound 0.4 µM) was 0.976 and the relative viability ([4]; first compound 1.265 µM) was 0.768. The relative viability ([4]; first compound 4 µM) was 0.815.

NCI-H1793 showed a relative viability ([1]; first compound 0.08 µM) of 0.305, a relative viability ([1]; first compound 0.8 µM) of 0.331 and a relative viability ([1]; first compound 2.53 µM) of 0.414. It also gave a relative viability ([1]; first compound 8 µM) of 0.526, a relative viability ([2]; first compound 0.08 µM) of 0.581 and a relative viability ([2]; first compound 0.8 µM) of 0.725. For the same cell line, the relative viability ([2]; first compound 2.53 µM) was 0.644, the relative viability ([2]; first compound 8 µM) was 0.666 and the relative viability ([4]; first compound 0.04 µM) was 1.02. For the same cell line, the relative viability ([4]; first compound 0.1265 µM) was 0.878, the relative viability ([4]; first compound 0.4 µM) was 0.83 and the relative viability ([4]; first compound 4 µM) was 0.787.

A549 was tested, and the relative viability ([1]; first compound 0.08 µM) was 1.1, the relative viability ([1]; first compound 0.8 µM) was 1.27 and the relative viability ([1]; first compound 2.53 µM) was 1.38. For the same cell line, the relative viability ([1]; first compound 8 µM) was 1.3, the relative viability ([2]; first compound 0.08 µM) was 0.863 and the relative viability ([2]; first compound 0.8 µM) was 1.02. For the same cell line, the relative viability ([2]; first compound 2.53 µM) was 1.14, the relative viability ([2]; first compound 8 µM) was 0.952 and the relative viability ([4]; first compound 0.04 µM) was 0.674. The relative viability ([4]; first compound 0.1265 µM) was 0.666, the relative viability ([4]; first compound 0.4 µM) was 0.726 and the relative viability ([4]; first compound 1.265 µM) was 0.775. It also gave a relative viability ([4]; first compound 4 µM) of 0.619.

In the case of LCLC-103H, the relative viability ([3]; first compound 0.04 µM) is reported as 1.13, the relative viability ([3]; first compound 0.1265 µM) is reported as 0.819 and the relative viability ([3]; first compound 0.4 µM) is reported as 1.2. For the same cell line, the relative viability ([3]; first compound 1.265 µM) was 0.915, the relative viability ([3]; first compound 4 µM) was 0.856 and the relative viability ([4]; first compound 0.04 µM) was 1.18. The relative viability ([4]; first compound 0.1265 µM) was 1.06, the relative viability ([4]; first compound 0.4 µM) was 1.2 and the relative viability ([4]; first compound 1.265 µM) was 1.01. It also gave a relative viability ([4]; first compound 4 µM) of 1.11.

Work on NCI-H358 yielded a relative viability ([2]; first compound 0.08 µM) of 0.388, a relative viability ([2]; first compound 0.8 µM) of 0.463 and a relative viability ([2]; first compound 2.53 µM) of 0.43. It also gave a relative viability ([2]; first compound 8 µM) of 0.462, a relative viability ([4]; first compound 0.04 µM) of 0.707 and a relative viability ([4]; first compound 0.1265 µM) of 0.655. For the same cell line, the relative viability ([4]; first compound 0.4 µM) was 0.732, the relative viability ([4]; first compound 1.265 µM) was 0.801 and the relative viability ([4]; first compound 4 µM) was 0.702.
